Test results reported in BindingDB's records for doi:10.1074/jbc.M110.139634 (French Alternative Energies and Atomic Energy Commission, 2010).

What was measured:
Experiment in all cases: Enzyme Assay
Details in all cases: pH 6.8; 25 °C
[1] = target: T1, Disintegrin and metalloproteinase domain-containing protein 17 [215-477,S266A,N452Q] (Homo sapiens, UniProt P78536, N452Q/S266A)
T1 construct: 215-477
Text: (§1) Enzyme assay using matrix metalloproteinases.

[2] = target: Angiotensin-converting enzyme (Homo sapiens, UniProt P12821)
Text: as §1

Collagenase 3 = Collagenase 3 (Homo sapiens, UniProt P45452)
Text: as §1

[3] = target: Macrophage metalloelastase (Homo sapiens, UniProt P39900)
Text: as §1

Stromelysin-1 = Stromelysin-1 (Homo sapiens, UniProt P08254)
Text: as §1

[4] = target: 72 kDa type IV collagenase (Homo sapiens, UniProt P08253)
Text: as §1

Stromelysin-2 = Stromelysin-2 (Homo sapiens, UniProt P09238)
Text: as §1

Interstitial collagenase = target: T2, Interstitial collagenase (Homo sapiens, UniProt P03956)
T2 sequence (P03956 whole entry): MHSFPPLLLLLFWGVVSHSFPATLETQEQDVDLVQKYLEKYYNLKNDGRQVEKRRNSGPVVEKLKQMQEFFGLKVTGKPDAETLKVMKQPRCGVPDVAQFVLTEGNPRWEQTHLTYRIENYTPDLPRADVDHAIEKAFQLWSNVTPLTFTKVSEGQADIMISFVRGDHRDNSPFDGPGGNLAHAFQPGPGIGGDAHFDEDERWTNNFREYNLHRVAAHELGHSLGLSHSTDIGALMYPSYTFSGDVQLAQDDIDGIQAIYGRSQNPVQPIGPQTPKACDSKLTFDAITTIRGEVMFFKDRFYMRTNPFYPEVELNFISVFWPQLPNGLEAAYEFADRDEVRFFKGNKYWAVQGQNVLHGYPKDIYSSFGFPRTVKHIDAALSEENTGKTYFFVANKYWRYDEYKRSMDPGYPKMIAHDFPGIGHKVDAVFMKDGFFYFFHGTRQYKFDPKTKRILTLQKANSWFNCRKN
Text: as §1

Matrilysin = target: T3, Matrilysin (Homo sapiens, UniProt P09237)
T3 sequence (P09237 whole entry): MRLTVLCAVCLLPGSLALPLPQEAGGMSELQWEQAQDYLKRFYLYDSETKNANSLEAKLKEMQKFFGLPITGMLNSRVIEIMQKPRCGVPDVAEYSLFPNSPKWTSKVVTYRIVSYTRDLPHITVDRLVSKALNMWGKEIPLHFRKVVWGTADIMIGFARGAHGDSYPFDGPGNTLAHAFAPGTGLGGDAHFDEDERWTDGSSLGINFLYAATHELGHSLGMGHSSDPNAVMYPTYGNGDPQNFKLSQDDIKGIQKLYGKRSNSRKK
Text: as §1

[5] = target: Matrix metalloproteinase-14 (Homo sapiens, UniProt P50281)
Text: as §1

[6] = target: Matrix metalloproteinase-9 (Homo sapiens, UniProt P14780)
Text: as §1

Neutrophil collagenase = Neutrophil collagenase (Homo sapiens, UniProt P22894)
Text: as §1

Angiotensin-converting enzyme, sequence (P12821 whole entry): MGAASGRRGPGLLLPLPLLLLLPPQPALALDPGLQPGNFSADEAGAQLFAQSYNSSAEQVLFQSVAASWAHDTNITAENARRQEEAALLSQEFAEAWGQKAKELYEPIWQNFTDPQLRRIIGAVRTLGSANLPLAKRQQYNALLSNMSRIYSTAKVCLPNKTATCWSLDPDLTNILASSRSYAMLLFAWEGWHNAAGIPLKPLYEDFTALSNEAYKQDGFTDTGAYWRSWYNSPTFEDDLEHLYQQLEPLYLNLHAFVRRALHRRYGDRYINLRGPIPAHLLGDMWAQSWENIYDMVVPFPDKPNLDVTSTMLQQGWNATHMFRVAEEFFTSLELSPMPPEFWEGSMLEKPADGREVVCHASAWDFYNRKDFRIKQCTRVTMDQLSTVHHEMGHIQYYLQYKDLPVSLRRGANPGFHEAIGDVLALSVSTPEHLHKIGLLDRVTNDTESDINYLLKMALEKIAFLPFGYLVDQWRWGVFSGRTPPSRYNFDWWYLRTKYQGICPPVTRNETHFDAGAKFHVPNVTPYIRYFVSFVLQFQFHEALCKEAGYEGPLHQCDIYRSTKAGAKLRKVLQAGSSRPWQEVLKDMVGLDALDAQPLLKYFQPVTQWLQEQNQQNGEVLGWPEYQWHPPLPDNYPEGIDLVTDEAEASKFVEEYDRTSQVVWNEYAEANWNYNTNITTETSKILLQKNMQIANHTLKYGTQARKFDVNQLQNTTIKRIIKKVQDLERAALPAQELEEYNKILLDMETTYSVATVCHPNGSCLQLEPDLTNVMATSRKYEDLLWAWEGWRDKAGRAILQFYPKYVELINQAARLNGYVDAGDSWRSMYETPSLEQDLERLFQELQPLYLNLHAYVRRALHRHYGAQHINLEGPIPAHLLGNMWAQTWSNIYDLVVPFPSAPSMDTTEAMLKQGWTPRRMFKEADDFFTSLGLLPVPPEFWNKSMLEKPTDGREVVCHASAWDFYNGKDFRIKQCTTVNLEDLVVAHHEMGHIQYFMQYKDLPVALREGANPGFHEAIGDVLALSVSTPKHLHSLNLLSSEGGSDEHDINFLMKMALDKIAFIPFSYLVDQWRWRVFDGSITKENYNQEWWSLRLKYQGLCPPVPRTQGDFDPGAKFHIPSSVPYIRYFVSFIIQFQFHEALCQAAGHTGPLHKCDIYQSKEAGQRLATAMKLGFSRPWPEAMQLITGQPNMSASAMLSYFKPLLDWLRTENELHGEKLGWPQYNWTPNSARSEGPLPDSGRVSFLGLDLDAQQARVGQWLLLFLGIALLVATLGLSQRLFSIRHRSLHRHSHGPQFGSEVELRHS
Macrophage metalloelastase, sequence (P39900 whole entry): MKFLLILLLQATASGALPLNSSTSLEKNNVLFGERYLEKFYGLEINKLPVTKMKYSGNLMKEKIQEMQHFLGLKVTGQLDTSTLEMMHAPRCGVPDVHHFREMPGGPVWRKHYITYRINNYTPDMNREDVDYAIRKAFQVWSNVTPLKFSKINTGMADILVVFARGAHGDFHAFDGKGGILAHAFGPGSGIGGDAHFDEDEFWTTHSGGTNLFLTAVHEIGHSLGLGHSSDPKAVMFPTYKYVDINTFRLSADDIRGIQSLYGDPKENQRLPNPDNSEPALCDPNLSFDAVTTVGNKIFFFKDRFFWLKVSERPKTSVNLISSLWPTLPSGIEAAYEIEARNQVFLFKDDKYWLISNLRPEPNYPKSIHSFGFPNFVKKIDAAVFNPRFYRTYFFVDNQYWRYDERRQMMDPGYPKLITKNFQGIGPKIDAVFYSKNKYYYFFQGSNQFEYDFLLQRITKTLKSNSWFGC
Matrix metalloproteinase-9, sequence (P14780 whole entry): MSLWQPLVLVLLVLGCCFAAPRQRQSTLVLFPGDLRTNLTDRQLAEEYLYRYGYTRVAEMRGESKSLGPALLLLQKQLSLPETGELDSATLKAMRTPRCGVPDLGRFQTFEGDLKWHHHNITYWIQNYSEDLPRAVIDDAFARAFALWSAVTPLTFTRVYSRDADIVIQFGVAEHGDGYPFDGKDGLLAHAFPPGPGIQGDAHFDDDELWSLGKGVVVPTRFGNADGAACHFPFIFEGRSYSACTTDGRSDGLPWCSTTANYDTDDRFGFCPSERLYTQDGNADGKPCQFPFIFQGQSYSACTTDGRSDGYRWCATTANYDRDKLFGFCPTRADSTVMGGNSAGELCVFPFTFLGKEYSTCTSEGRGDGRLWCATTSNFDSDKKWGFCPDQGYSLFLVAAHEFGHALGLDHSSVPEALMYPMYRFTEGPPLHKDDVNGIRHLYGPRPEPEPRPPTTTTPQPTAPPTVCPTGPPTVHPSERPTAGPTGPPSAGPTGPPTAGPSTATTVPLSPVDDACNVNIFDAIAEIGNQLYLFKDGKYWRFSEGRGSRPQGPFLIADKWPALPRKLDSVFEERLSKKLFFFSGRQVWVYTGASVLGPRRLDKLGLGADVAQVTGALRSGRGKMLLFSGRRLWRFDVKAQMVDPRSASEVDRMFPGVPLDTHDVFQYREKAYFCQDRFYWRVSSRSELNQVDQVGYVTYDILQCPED
Neutrophil collagenase, sequence (P22894 whole entry): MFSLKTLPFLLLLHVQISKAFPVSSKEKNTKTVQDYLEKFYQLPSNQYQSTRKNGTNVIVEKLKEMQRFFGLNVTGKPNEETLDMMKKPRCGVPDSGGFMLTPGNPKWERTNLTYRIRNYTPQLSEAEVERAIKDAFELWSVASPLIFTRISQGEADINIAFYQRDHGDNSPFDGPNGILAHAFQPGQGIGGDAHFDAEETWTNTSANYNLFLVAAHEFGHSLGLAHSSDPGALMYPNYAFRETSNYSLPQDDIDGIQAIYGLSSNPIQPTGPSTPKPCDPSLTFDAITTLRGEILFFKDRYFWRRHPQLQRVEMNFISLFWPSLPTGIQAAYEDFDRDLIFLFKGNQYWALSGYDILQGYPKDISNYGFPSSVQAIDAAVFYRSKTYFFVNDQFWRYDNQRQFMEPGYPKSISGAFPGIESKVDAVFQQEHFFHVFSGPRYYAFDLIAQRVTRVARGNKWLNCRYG
T1 sequence (P78536 215-477 S266A/N452Q): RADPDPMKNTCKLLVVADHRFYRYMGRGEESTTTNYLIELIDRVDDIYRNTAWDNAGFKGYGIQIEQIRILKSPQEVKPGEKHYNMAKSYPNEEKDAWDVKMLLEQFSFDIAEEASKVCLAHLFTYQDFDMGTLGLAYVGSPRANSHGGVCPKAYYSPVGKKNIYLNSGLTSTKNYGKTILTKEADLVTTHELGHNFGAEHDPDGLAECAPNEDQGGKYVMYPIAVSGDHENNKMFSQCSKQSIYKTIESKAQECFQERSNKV
72 kDa type IV collagenase, sequence (P08253 whole entry): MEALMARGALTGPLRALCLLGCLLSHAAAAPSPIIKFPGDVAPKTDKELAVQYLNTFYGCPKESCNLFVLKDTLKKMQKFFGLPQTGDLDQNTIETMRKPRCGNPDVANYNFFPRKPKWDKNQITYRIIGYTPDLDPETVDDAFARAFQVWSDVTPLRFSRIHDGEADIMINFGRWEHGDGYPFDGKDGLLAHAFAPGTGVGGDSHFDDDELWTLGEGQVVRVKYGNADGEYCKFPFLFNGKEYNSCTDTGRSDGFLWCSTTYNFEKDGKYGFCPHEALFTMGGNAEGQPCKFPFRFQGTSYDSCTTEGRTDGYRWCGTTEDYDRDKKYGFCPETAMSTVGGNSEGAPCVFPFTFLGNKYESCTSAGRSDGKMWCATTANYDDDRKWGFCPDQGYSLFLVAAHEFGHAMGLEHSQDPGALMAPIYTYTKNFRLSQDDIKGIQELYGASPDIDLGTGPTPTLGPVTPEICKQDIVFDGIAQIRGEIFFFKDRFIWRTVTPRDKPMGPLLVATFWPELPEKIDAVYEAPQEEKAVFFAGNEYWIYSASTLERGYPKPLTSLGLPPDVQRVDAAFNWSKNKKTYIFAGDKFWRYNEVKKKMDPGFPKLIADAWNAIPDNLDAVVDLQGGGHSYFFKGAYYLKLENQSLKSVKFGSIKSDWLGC
Stromelysin-1, sequence (P08254 whole entry): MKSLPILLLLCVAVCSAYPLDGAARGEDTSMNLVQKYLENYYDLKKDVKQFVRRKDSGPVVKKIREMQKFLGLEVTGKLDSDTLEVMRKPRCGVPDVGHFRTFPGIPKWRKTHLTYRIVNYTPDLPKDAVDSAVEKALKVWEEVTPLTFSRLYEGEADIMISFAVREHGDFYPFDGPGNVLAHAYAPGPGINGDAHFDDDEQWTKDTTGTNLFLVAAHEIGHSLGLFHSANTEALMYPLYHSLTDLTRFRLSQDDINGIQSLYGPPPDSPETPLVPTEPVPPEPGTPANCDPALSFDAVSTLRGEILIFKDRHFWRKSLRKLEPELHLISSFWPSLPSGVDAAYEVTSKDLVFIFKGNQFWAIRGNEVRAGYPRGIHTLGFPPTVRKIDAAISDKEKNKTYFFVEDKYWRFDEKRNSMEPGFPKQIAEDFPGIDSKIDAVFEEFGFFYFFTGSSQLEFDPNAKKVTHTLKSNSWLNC
Stromelysin-2, sequence (P09238 whole entry): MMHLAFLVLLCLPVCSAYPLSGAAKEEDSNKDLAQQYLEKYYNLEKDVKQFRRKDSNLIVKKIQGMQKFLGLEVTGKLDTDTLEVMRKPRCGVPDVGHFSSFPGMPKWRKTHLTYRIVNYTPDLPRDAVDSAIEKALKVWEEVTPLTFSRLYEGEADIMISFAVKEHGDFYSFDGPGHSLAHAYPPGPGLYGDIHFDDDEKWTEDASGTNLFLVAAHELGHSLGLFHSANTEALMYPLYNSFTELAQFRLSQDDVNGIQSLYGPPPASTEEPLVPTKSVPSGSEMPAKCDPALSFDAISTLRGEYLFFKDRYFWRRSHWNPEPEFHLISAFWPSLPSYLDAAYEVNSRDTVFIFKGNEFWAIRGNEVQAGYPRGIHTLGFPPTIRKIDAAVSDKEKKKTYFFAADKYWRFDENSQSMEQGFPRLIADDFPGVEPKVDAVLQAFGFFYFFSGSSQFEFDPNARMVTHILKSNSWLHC

## NC(=O)[C@@H](CCC(=O)O)NC(=O)[C@H](CCC(=O)O)NC(=O)C(Cc1cc(-c2ccc(-c3cccc(Cl)c3)cc2)no1)CP(=O)(O)c1ccc(Br)cc1 (some centres not stated) [RXP470, Compound 4]
[1]
  Ki: > 10000 nM
[2]
  Ki: > 10000 nM
Collagenase 3
  Ki: 49 nM
[3]
  Ki: 0.19 nM
Stromelysin-1
  Ki: 40 nM
[4]
  Ki: 192 nM
Stromelysin-2
  Ki: 8.3 nM
Interstitial collagenase
  Ki: > 10000 nM
Matrilysin
  Ki: 626 nM
[5]
  Ki: 140 nM
[6]
  Ki: 850 nM
Neutrophil collagenase
  Ki: 271 nM
